Results published in the supplement of paper PMC10307832.

Assays:
Assay in all cases: relative viability (nuclei count vs DMSO), 5 days (fraction); higher = more cells survive
[1] = compound: CCN1CCN(c2ccc(Nc3cc(N(C)C(=O)Nc4c(Cl)c(OC)cc(OC)c4Cl)ncn3)cc2)CC1 [BGJ398] + Nc1nc2[nH]cc(CCc3ccc(C(=O)N[C@@H](CCC(=O)O)C(=O)O)cc3)c2c(=O)[nH]1 [Pemetrexed] (partner 0.2 µM)
Method in brief: (§1)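 Cells from lung cancer lines were seeded into 1536-well plates and, one day later, dosed by pin tool. Treatments were either a single drug or a fixed dose of an anchor drug with five library-drug doses (not always all listed) in √10 steps. After 5 days, nuclei were stained in a one-step fixation (final 0.05% Triton X-100, 1% formaldehyde, 1 ug/ml Hoechst) and counted on 4× images, and relative viability is the treated-to-vehicle nuclei ratio, as the median of duplicate plates.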

[2] = compound: C1=CC2=NC=CN=C2C=C1/C=C/3\C(=O)NC(=O)S3 + CC(=O)c1c(C)c2cnc(Nc3ccc(N4CCNCC4)cn3)nc2n(C2CCCC2)c1=O [Palbociclib] (partner 0.5 µM)
Method in brief: as §1

[3] = compound: C1=CC2=NC=CN=C2C=C1/C=C/3\C(=O)NC(=O)S3 + Cc1nc(NC(=O)N2CCC[C@H]2C(N)=O)sc1-c1ccnc(C(C)(C)C(F)(F)F)c1 [Alpelisib] (partner 2 µM)
Method in brief: as §1

[4] = compound: CCN1CCN(c2ccc(Nc3cc(N(C)C(=O)Nc4c(Cl)c(OC)cc(OC)c4Cl)ncn3)cc2)CC1 [BGJ398] + CS(=O)(=O)N1CCN(Cc2cc3nc(-c4cccc5[nH]ncc45)nc(N4CCOCC4)c3s2)CC1 [Pictilisib] (partner 1 µM)
Method in brief: as §1

Cell Line	relative viability ([1]; first compound 0.01 µM)	relative viability ([1]; first compound 0.03162 µM)	relative viability ([1]; first compound 0.1 µM)	relative viability ([1]; first compound 0.3162 µM)	relative viability ([1]; first compound 1 µM)	relative viability ([2]; first compound 0.02 µM)	relative viability ([2]; first compound 0.06325 µM)	relative viability ([2]; first compound 0.2 µM)	relative viability ([2]; first compound 0.6325 µM)	relative viability ([2]; first compound 2 µM)	relative viability ([3]; first compound 0.02 µM)	relative viability ([3]; first compound 0.06325 µM)	relative viability ([3]; first compound 0.2 µM)	relative viability ([3]; first compound 0.6325 µM)	relative viability ([3]; first compound 2 µM)	relative viability ([4]; first compound 0.01 µM)	relative viability ([4]; first compound 0.03162 µM)	relative viability ([4]; first compound 0.1 µM)	relative viability ([4]; first compound 0.3162 µM)	relative viability ([4]; first compound 1 µM)
NCI-H1755	0.438	0.44	0.428	0.443	0.427	0.428	0.429	0.461	0.432	0.446	0.878	0.824	0.941	0.888	0.896	0.443	0.446	0.361	0.349	0.285
NCI-H661	0.912	0.877	0.961	0.977	0.912	0.397	0.453	0.402	0.434	0.436	0.651	0.614	0.952	0.732	0.469	0.361	0.46	0.388	0.382	0.348
HARA	0.237	0.22	0.215	0.273	0.248	0.27	0.261	0.241	0.213	0.238	0.749	0.696	0.844	0.806	0.859	0.346	0.426	0.371	0.283	0.185
NCI-H23	0.735	0.652	0.528	0.715	0.541	0.513	0.547	0.577	0.509	0.349	0.67	0.803	0.589	0.692	0.567	0.545	0.487	0.477	0.461	0.411
LCLC-97TM1	0.172	0.236	0.161	0.174	0.162	0.239	0.214	0.215	0.176	0.155	0.234	0.267	0.294	0.268	0.178	0.186	0.189	0.207	0.298	0.163
EPLC-272H	0.32	0.447	0.317	0.289	0.418	0.327	0.25	0.349	0.344	0.292	1.05	1.05	1.01	0.833	0.939	0.323	0.296	0.255	0.255	0.18
NCI-H1915	0.511	0.524	0.571	0.458	0.521	0.538	0.578	0.561	0.512	0.533	1.02	1.17	1.03	1.04	1.06	0.913	0.904	0.906	1.03	0.97
NCI-H2405	1.05	1.15	1.09	1.3	1.02	0.517	0.585	0.528	0.512	0.436	0.692	0.92	0.872	0.804	0.703	0.406	0.587	0.42	0.482	0.421
NCI-H322M	0.662	0.635	0.637	0.603	0.631	0.553	0.491	0.477	0.454	0.455	0.835	0.713	0.74	0.852	0.67	0.511	0.415	0.508	0.432	0.515
NCI-H2170	0.273	0.254	0.283	0.276	0.247	0.35	0.448	0.405	0.374	0.374	0.757	0.761	0.928	0.769	0.746	0.348	0.279	0.311	0.287	0.288
NCI-H1395	0.827	0.82	0.77	0.559	0.524	0.621	0.58	0.642	0.622	0.594	0.934	1.14	1.32	0.922	1.39	0.664	0.674	0.568	0.357	0.364
NCI-H358	0.173	0.167	0.199	0.17	0.188	0.147	0.135	0.128	0.136	0.114	0.953	0.955	0.87	0.791	0.547	0.305	0.403	0.358	0.315	0.332
NCI-H838	0.227	0.243	0.217	0.237	0.23	0.217	0.25	0.233	0.179	0.17	0.989	1.16	1	1.04	0.913	0.436	0.393	0.417	0.338	0.277
CAL-12T	1.17	1.21	1.1	1.34	1.01	0.394	0.664	0.454	0.48	0.403	1.3	1.11	1.11	1.3	1.15	0.423	0.441	0.532	0.409	0.342
